Measured values reported in PubChem BioAssay (NCI).
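Assay format: 96-well plates, 48-hour exposure. The concentration for 50% growth inhibition is given as GI50. Definition used: TGI = concentration required for complete inhibition of growth.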

Experiments:
Assay in all cases: inhibition of tumour cell growth, NCI panel, 48 h
UACC-62 melanoma = tested on: UACC-62 melanoma
HOP-92 NSCLC = tested on: HOP-92 NSCLC
HCC-2998 colon = tested on: HCC-2998 colon
M14 melanoma = tested on: M14 melanoma
MCF7 breast = tested on: MCF7 breast
SR leukemia = tested on: SR leukemia
HS 578T breast = tested on: HS 578T breast
SF-295 CNS = tested on: SF-295 CNS
K-562 leukemia = tested on: K-562 leukemia
NCI-H226 lung = tested on: NCI-H226 lung

## Cc1cc(C)c(C[N+](C)(C)C)c(C)c1C
UACC-62 melanoma
  GI50: 0.538 µM
  TGI: 18.9 µM
HOP-92 NSCLC
  GI50: 0.285 µM
  TGI: 13.5 µM
HCC-2998 colon
  GI50: 0.521 µM
  TGI: 12.4 µM
M14 melanoma
  GI50: 0.374 µM
  TGI: 11.1 µM
MCF7 breast
  GI50: 0.289 µM
  TGI: 15.2 µM
SR leukemia
  GI50: 0.821 µM
  TGI: > 41.1 µM
HS 578T breast
  GI50: 0.338 µM
  TGI: 9.94 µM
SF-295 CNS
  GI50: 0.255 µM
  TGI: 7.25 µM
K-562 leukemia
  GI50: 0.416 µM
  TGI: > 100 µM
NCI-H226 lung
  GI50: 0.565 µM
  TGI: 11.9 µM

## CC(C)c1ccc(C(=O)Nc2sc3c(c2C#N)CCC(=O)C3)cc1
UACC-62 melanoma
  GI50: 0.318 µM
  TGI: 1.6 µM
HOP-92 NSCLC
  GI50: 0.607 µM
  TGI: 2.4 µM
HCC-2998 colon
  GI50: 1.94 µM
  TGI: > 37.4 µM
M14 melanoma
  GI50: 0.592 µM
  TGI: 26.4 µM
MCF7 breast
  GI50: 0.337 µM
  TGI: > 45 µM
SR leukemia
  GI50: 0.424 µM
  TGI: > 100 µM
HS 578T breast
  GI50: 0.546 µM
  TGI: > 100 µM
SF-295 CNS
  GI50: 1.36 µM
  TGI: > 28.1 µM
K-562 leukemia
  GI50: 0.203 µM
NCI-H226 lung
  GI50: 3.88 µM
  TGI: 16.3 µM

## COC(=O)c1c2c(c(C)[n+]([O-])c1C)C(=O)C=C(NCc1ccc(F)c(F)c1)C2=O
UACC-62 melanoma
  GI50: 0.0618 µM
  TGI: 0.612 µM
HOP-92 NSCLC
  GI50: 1.56 µM
  TGI: 3.61 µM
HCC-2998 colon
  GI50: 0.359 µM
  TGI: 1.43 µM
M14 melanoma
  GI50: 0.274 µM
  TGI: 1.38 µM
MCF7 breast
  GI50: 0.255 µM
  TGI: 0.891 µM
SR leukemia
  GI50: 0.373 µM
  TGI: 4.06 µM
HS 578T breast
  GI50: 1.89 µM
  TGI: 6.17 µM
SF-295 CNS
  GI50: 0.437 µM
  TGI: 1.59 µM
K-562 leukemia
  GI50: 0.0745 µM
NCI-H226 lung
  GI50: 1.44 µM
  TGI: 3.27 µM

## C#CC1(O)C(COP(=O)(O)OC2CC(n3cc(F)c(=O)[nH]c3=O)OC2CO)OC(n2ccc(N)nc2=O)C1O (stereo unspecified)
UACC-62 melanoma
  GI50: 0.019 µM
  TGI: 1.82 µM
HOP-92 NSCLC
  GI50: < 0.0242 µM
  TGI: 3.75 µM
HCC-2998 colon
  GI50: < 0.01 µM
  TGI: 0.431 µM
M14 melanoma
  GI50: < 0.0211 µM
  TGI: 0.774 µM
MCF7 breast
  GI50: < 0.01 µM
  TGI: 0.137 µM
SR leukemia
  GI50: < 0.01 µM
  TGI: 0.142 µM
HS 578T breast
  GI50: 0.304 µM
  TGI: > 35.4 µM
SF-295 CNS
  GI50: < 0.01 µM
K-562 leukemia
  GI50: 0.0101 µM
  TGI: > 100 µM
NCI-H226 lung
  GI50: 0.0614 µM
  TGI: > 36.1 µM

## O=[N+]([O-])c1ccc(N/N=C/c2c(O)ccc3ccccc23)nc1
UACC-62 melanoma
  GI50: 9.82 µM
  TGI: > 100 µM
HOP-92 NSCLC
  GI50: 7.94 µM
  TGI: 99.4 µM
HCC-2998 colon
  GI50: 28.8 µM
  TGI: > 100 µM
M14 melanoma
  GI50: 16.4 µM
  TGI: > 100 µM
MCF7 breast
  GI50: 1.91 µM
  TGI: > 100 µM
SR leukemia
  GI50: 0.665 µM
  TGI: > 100 µM
HS 578T breast
  GI50: 57.8 µM
  TGI: > 100 µM
SF-295 CNS
  GI50: 4.9 µM
  TGI: > 100 µM
K-562 leukemia
  GI50: > 100 µM
  TGI: > 100 µM
NCI-H226 lung
  GI50: 93.8 µM
  TGI: > 100 µM

## O=C1CSC(/C(=C\c2ccc(Cl)cc2)c2nc3ccccc3[nH]2)=N1
UACC-62 melanoma
  TGI: 33.5 µM
HOP-92 NSCLC
  TGI: 25.1 µM
HCC-2998 colon
  TGI: 17.7 µM
M14 melanoma
  TGI: 40.3 µM
MCF7 breast
  TGI: 28.7 µM
SR leukemia
  TGI: 94.4 µM
HS 578T breast
  TGI: 53.2 µM
SF-295 CNS
  TGI: 22.8 µM
K-562 leukemia
  TGI: > 100 µM
NCI-H226 lung
  TGI: 18.2 µM

## Nc1nnc2cc(Cl)ccc2n1
UACC-62 melanoma
  GI50: > 100 µM
  TGI: > 100 µM
HOP-92 NSCLC
  GI50: 3.56 µM
  TGI: 47.6 µM
HCC-2998 colon
  GI50: > 100 µM
  TGI: > 100 µM
M14 melanoma
  GI50: > 100 µM
  TGI: > 100 µM
MCF7 breast
  GI50: > 100 µM
  TGI: > 100 µM
SR leukemia
  GI50: > 100 µM
  TGI: > 100 µM
HS 578T breast
  GI50: 24.6 µM
  TGI: > 100 µM
SF-295 CNS
  GI50: 74 µM
  TGI: > 100 µM
K-562 leukemia
  GI50: > 100 µM
  TGI: > 100 µM
NCI-H226 lung
  GI50: > 100 µM
  TGI: > 100 µM

## COC(=O)c1sc(C(=O)OC)c2c1CSC2
UACC-62 melanoma
  TGI: > 100 µM
HOP-92 NSCLC
  TGI: > 93.6 µM
HCC-2998 colon
  TGI: > 100 µM
M14 melanoma
  TGI: > 100 µM
MCF7 breast
  TGI: > 100 µM
SR leukemia
  TGI: > 100 µM
HS 578T breast
  TGI: > 100 µM
SF-295 CNS
  TGI: > 100 µM
K-562 leukemia
  TGI: > 100 µM
NCI-H226 lung
  TGI: > 100 µM

## Cc1nc2ccc(Nc3nc(NCCN4CCOCC4)nc(Nc4ccc(F)cc4)n3)cc2n1Cc1ccccc1
UACC-62 melanoma
  GI50: 2.27 µM
  TGI: 6.18 µM
HOP-92 NSCLC
  GI50: 1.59 µM
  TGI: 6.48 µM
HCC-2998 colon
  GI50: 2.74 µM
  TGI: 6.23 µM
M14 melanoma
  GI50: 1.86 µM
  TGI: 3.66 µM
MCF7 breast
  GI50: 2.46 µM
  TGI: 11.7 µM
SR leukemia
  GI50: 1.46 µM
  TGI: 5.23 µM
HS 578T breast
  GI50: 1.87 µM
  TGI: 6.66 µM
SF-295 CNS
  GI50: 1.49 µM
  TGI: 2.93 µM
K-562 leukemia
  GI50: 1.79 µM
  TGI: 7.42 µM
NCI-H226 lung
  GI50: 4.02 µM
  TGI: 27.9 µM

## O=C1C=C(Br)C(=O)C12CCc1ccccc12 (stereo unspecified)
UACC-62 melanoma
  TGI: 32 µM
HOP-92 NSCLC
  TGI: 27.3 µM
HCC-2998 colon
  TGI: 40.2 µM
M14 melanoma
  TGI: 19.3 µM
MCF7 breast
  TGI: 48.5 µM
SR leukemia
  TGI: 17.3 µM
HS 578T breast
  TGI: > 82.5 µM
SF-295 CNS
  TGI: 36.6 µM
K-562 leukemia
  TGI: 9.26 µM
NCI-H226 lung
  TGI: 35.8 µM

## O=C(c1ccc2ncc(-c3nc(NC4CC4)ncc3F)n2c1)N1CCOCC1
UACC-62 melanoma
  GI50: 1.54 µM
  TGI: 3.6 µM
HOP-92 NSCLC
  GI50: 1.93 µM
  TGI: 6.86 µM
HCC-2998 colon
  GI50: 3.01 µM
  TGI: 8.99 µM
M14 melanoma
  GI50: 1.9 µM
  TGI: 4.07 µM
MCF7 breast
  GI50: 2.71 µM
  TGI: 11 µM
SR leukemia
  GI50: 0.513 µM
  TGI: 4.15 µM
HS 578T breast
  GI50: 2.21 µM
  TGI: 8.04 µM
SF-295 CNS
  GI50: 2.64 µM
  TGI: > 100 µM
K-562 leukemia
  GI50: 3.21 µM
  TGI: 29 µM
NCI-H226 lung
  GI50: 2.05 µM
  TGI: 6.39 µM

## O=C(Nc1ccc(F)cc1)c1c(NC(=O)C(F)(F)F)sc2c1CCCCC2
UACC-62 melanoma
  GI50: 0.585 µM
  TGI: 5.19 µM
HOP-92 NSCLC
  GI50: 0.269 µM
  TGI: 1.38 µM
HCC-2998 colon
  GI50: 2.06 µM
  TGI: 10 µM
M14 melanoma
  GI50: 2.91 µM
  TGI: 13.4 µM
MCF7 breast
  GI50: 1.97 µM
  TGI: 9.84 µM
SR leukemia
  GI50: 1.29 µM
  TGI: > 100 µM
HS 578T breast
  GI50: 0.633 µM
  TGI: 4.57 µM
SF-295 CNS
  GI50: 1.01 µM
  TGI: 3.26 µM
K-562 leukemia
  GI50: 1.97 µM
  TGI: > 100 µM
NCI-H226 lung
  GI50: 1.76 µM
  TGI: 5.46 µM

## CC[C@@]1(O)C(=O)NCc2c1cc1n(c2=O)Cc2cc3c(N)cccc3nc2-1
UACC-62 melanoma
  GI50: 1.15 µM
  TGI: 20.2 µM
HOP-92 NSCLC
  GI50: 8.64 µM
  TGI: > 84.1 µM
HCC-2998 colon
  GI50: 2.04 µM
  TGI: 9.24 µM
M14 melanoma
  GI50: 0.685 µM
  TGI: > 65.8 µM
MCF7 breast
  GI50: 0.787 µM
  TGI: > 100 µM
SR leukemia
  GI50: 0.672 µM
  TGI: 5.35 µM
HS 578T breast
  GI50: > 17.4 µM
  TGI: > 64.3 µM
SF-295 CNS
  GI50: 1.01 µM
  TGI: > 46.8 µM
K-562 leukemia
  GI50: 3.09 µM
NCI-H226 lung
  GI50: 2.03 µM
  TGI: > 38.9 µM

## Nc1ccc2c(c1)NCCN2
UACC-62 melanoma
  TGI: > 100 µM
HOP-92 NSCLC
  TGI: > 100 µM
HCC-2998 colon
  TGI: > 100 µM
M14 melanoma
  TGI: > 100 µM
MCF7 breast
  TGI: > 100 µM
SR leukemia
  TGI: > 100 µM
HS 578T breast
  TGI: > 100 µM
SF-295 CNS
  TGI: > 100 µM
K-562 leukemia
  TGI: > 100 µM
NCI-H226 lung
  TGI: 52.2 µM

## COc1cc(/C=C\[N+](=O)[O-])ccc1OCc1ccccc1
UACC-62 melanoma
  GI50: 1.7 µM
  TGI: 4.67 µM
HOP-92 NSCLC
  GI50: 12.5 µM
  TGI: 31.4 µM
HCC-2998 colon
  GI50: 1.86 µM
  TGI: 3.63 µM
M14 melanoma
  GI50: 1.65 µM
  TGI: 4.31 µM
MCF7 breast
  GI50: 1.44 µM
  TGI: 3.27 µM
SR leukemia
  GI50: 1.46 µM
  TGI: 5.27 µM
HS 578T breast
  GI50: 3.81 µM
  TGI: > 100 µM
SF-295 CNS
  GI50: 4.07 µM
  TGI: 18.8 µM
K-562 leukemia
  GI50: 2.06 µM
  TGI: 11.1 µM
NCI-H226 lung
  GI50: 2.26 µM
  TGI: 5.47 µM
